# Patent publication US10517889B2, “Modulators of SMAD7 expression” (Ionis Pharmaceuticals, Inc., priority 2017, dated 2019)
# How the values were obtained:
# [1] = Oligonucleotide concentration in liver and colon by LC-MS/MS after subcutaneous administration in CD-1 mice (Example 6); format: in vivo; conditions: 50 mg/kg subcutaneously twice a week for 7 weeks, 48 hours after the last dose
# Procedure: Groups of 8-9 week old male CD-1 mice were injected subcutaneously twice a week for 7 weeks with 50 mg/kg of Ionis oligonucleotides (100 mg/kg/week dose). Each group contained 4 mice. One group of male CD-1 mice was injected subcutaneously twice a week for 7 weeks with PBS. Plasma was collected for analysis on day 28.
# Oligonucleotide concentrations in the liver and colon were analyzed using LC-MS/MS method.
# [2] = tested on: mouse Smad7 mRNA; experiment: Pharmacology: mouse Smad7 mRNA expression in liver, kidney, duodenum, ileum and colon after subcutaneous administration in CD-1 mice (Example 6); format: in vivo; conditions: 50 mg/kg subcutaneous twice weekly for 7 weeks, normalized to GAPDH
# In short: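 Male CD-1 mice, 8-9 weeks old, got 50 mg/kg oligonucleotide subcutaneously twice weekly (100 mg/kg/week) for 7 weeks, with PBS controls; n=4 per group. At necropsy, Smad7 mRNA in liver, kidney, duodenum, ileum and colon was measured by RT-PCR (probe set HTS7555), normalized to GAPDH; one-way ANOVA with Dunnett's test.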
# [3] = Blood chemistry markers after oral gavage in CD-1 mice (Example 7); format: in vivo; conditions: 500 mg/kg oral gavage once daily for 4 weeks, day 30
# Procedure: The objective of this study was to evaluate the tolerability and pharmacodynamics of select Ionis human SMAD7 antisense oligonucleotides in CD-1 mice following 4 weeks of treatment. The mice were administered oligonucleotides by oral gavage.
# (§1) Groups of 7-8 week old male CD-1 mice were given an oral gavage dose once daily for 4 weeks of 500 mg/kg of Ionis SMAD7 oligonucleotides. Each group contained 8 mice. One group of male CD-1 mice was administered saline by oral gavage daily.
# Levels of transaminases, albumin, and BUN were measured using a Toshiba 200FR NEO chemistry analyzer (Toshiba Co., Japan).
# [4] = Body and organ weights after oral gavage in CD-1 mice (Example 7); format: in vivo; conditions: 500 mg/kg oral gavage once daily for 4 weeks, end of study
# Procedure: as §1
# Final body weights were measured at the end of the study. There was no significant difference in the body weight of the mice treated with antisense oligonucleotide compared to the control.
# None of the Ionis SMAD7 oligonucleotides caused any changes in organ weights outside the expected range for antisense oligonucleotides.
# [5] = Hematology assays after oral gavage in CD-1 mice (Example 7); format: in vivo; design: RBC: unit not given here; conditions: 500 mg/kg oral gavage once daily for 4 weeks
# Procedure: as §1
# Blood obtained from all mouse groups was measured by an ADVIA2120i hematology analyzer (Siemens, USA) for measurements of the various blood cells, as well as other hematology markers. None of the Ionis SMAD7 oligonucleotides caused changes in the levels of any of the hematology markers outside the expected range for antisense oligonucleotides.
# [6] = Hematology assays after subcutaneous administration in beagle dogs (Example 8); format: in vivo; conditions: 30 mg/kg subcutaneous days 1, 3, 5, 8, 15, 22, 29
# Procedure: There were 4 animals per group.
# Blood samples were collected from the cephalic vein or saphenous vein of each animal. About 0.5 mL of blood samples was put into tubes containing the potassium salt of EDTA. Blood obtained from all dog groups was measured using an ADVIA2120i hematology analyzer for measurements of the various blood cells, as well as other hematology markers.
# [7] = Plasma chemistry markers after subcutaneous administration in beagle dogs (Example 8); conditions: 30 mg/kg subcutaneous days 1, 3, 5, 8, 15, 22, 29, plasma at day 31
# [8] = tested on: human peripheral blood mononuclear cells (PBMCs); experiment: Human PBMC activation assay, cytokine levels (IL-10, IL-6, MCP-1, TNF-α) in supernatant after 24 hours (Example 9); conditions: human PBMC supernatant after 24 hours
# Procedure: Ionis SMAD7 oligonucleotides were tested in an in vitro assay for potential immunostimulatory properties in an in vitro human peripheral blood mononuclear cell (PBMC) activation assay.
# Blood samples were collected from healthy human volunteers in heparinized vials and mixed well. Human PBMCs were isolated by gradient centrifugation using Ficoll-Histopaque. The cells were washed, counted and resuspended in medium. The PBMCs were plated in a 24-well culture plate and various concentrations of oligonucleotides were added to the media. An oligonucleotide historically known to promote an inflammatory response was used as a positive control, whereas an oligonucleotide known not to be pro-inflammatory was used as a negative control. […] The supernatants were collected after 24 hours and analyzed for cytokine levels using MSD platform.
substance,measurement,setting,value
"830037 (antisense CTATTGGCTGATCTGG; 3-10-3 cEt gapmer, further chemistry not given here) [compound 830037]","Oligonucleotide concentration, Colon",[1],24 μg/g tissue
same,"Oligonucleotide concentration, Liver",[1],97 μg/g tissue
same,"% inhibition of Smad7 mRNA expression (compared to control), Kidney",[2]; kidney,7%
same,"% inhibition of Smad7 mRNA expression (compared to control), Liver",[2]; liver,24%
same,ALT,[3],62 IU/L
same,AST,[3],94 IU/L
same,Albumin,[3],3.3 g/dL
same,BUN,[3],26 mg/dL
same,Bilirubin,[3],0.3 mg/dL
same,Body weight,[4],35 g
same,Heart weight,[4],0.17 g
same,Kidneys weight,[4],0.69 g
same,Liver with gallbladder weight,[4],1.93 g
same,Spleen weight,[4],0.10 g
same,Basophils,[5],0.01 10^3/μL
same,Eosinophils,[5],0.15 10^3/μL
same,Hematocrit,[5],53.4%
same,Hemoglobin,[5],15.4 g/dL
same,Lymphocytes,[5],73.2%
same,MCH,[5],15.4 pg
same,MCHC,[5],28.9 g/dL
same,MCV,[5],53.2 fL
same,Monocytes,[5],0.13 10^3/μL
same,Neutrophils,[5],19.3%
same,RBC,[5],10.1
same,Reticulocytes,[5],3.1%
same,WBC,[5],4.3 10^3/μL
same,platelets,[5],1122 10^3/μL
same,Basophils,[6],0.7%
same,Eosinophils,[6],2.6%
same,Hematocrit,[6],52%
same,Hemoglobin,[6],17.5 g/dL
same,Lymphocytes,[6],32%
same,MCH,[6],22.1 pg
same,MCHC,[6],33.6 g/dL
same,MCV,[6],66 fL
same,Monocytes,[6],8.0%
same,Neutrophils,[6],57%
same,PLT,[6],280 ^3/μL
same,RBC,[6],8.0 ^6/L
same,Reticulocytes,[6],0.3%
same,WBC,[6],8.5 ^3/μL
same,ALT,[7],3091 IU/L
same,AST,[7],1132 IU/L
same,Albumin,[7],3.7 g/dL
same,BUN,[7],21.2 mg/dL
same,Bilirubin,[7],0.8 mg/dL
same,Creatine,[7],1.0 mg/dL
same,Levels of IL-6,[8]; 0.0128 μM oligonucleotide,3.8 pg/mL
same,Levels of IL-10,[8]; 0.0128 μM oligonucleotide,1.6 pg/mL
same,Levels of MCP-1,[8]; 0.0128 μM oligonucleotide,369.4 pg/mL
same,Levels of TNF-α,[8]; 0.0128 μM oligonucleotide,3.2 pg/mL
same,Levels of IL-6,[8]; 0.064 μM oligonucleotide,9.8 pg/mL
same,Levels of IL-10,[8]; 0.064 μM oligonucleotide,3.2 pg/mL
same,Levels of MCP-1,[8]; 0.064 μM oligonucleotide,557.1 pg/mL
same,Levels of TNF-α,[8]; 0.064 μM oligonucleotide,4.1 pg/mL
same,Levels of IL-6,[8]; 0.32 μM oligonucleotide,26.7 pg/mL
same,Levels of IL-10,[8]; 0.32 μM oligonucleotide,8.2 pg/mL
same,Levels of MCP-1,[8]; 0.32 μM oligonucleotide,1284.2 pg/mL
same,Levels of TNF-α,[8]; 0.32 μM oligonucleotide,8.2 pg/mL
same,Levels of IL-6,[8]; 1.6 μM oligonucleotide,38.6 pg/mL
same,Levels of IL-10,[8]; 1.6 μM oligonucleotide,9.5 pg/mL
same,Levels of MCP-1,[8]; 1.6 μM oligonucleotide,1085.9 pg/mL
same,Levels of TNF-α,[8]; 1.6 μM oligonucleotide,9.2 pg/mL
same,Levels of IL-6,[8]; 8 μM oligonucleotide,38.4 pg/mL
same,Levels of IL-10,[8]; 8 μM oligonucleotide,7.1 pg/mL
same,Levels of MCP-1,[8]; 8 μM oligonucleotide,1917.1 pg/mL
same,Levels of TNF-α,[8]; 8 μM oligonucleotide,11.1 pg/mL
same,Levels of IL-6,[8]; 40 μM oligonucleotide,58.7 pg/mL
same,Levels of IL-10,[8]; 40 μM oligonucleotide,4.7 pg/mL
same,Levels of MCP-1,[8]; 40 μM oligonucleotide,3414.8 pg/mL
same,Levels of TNF-α,[8]; 40 μM oligonucleotide,16.6 pg/mL
same,Levels of IL-6,[8]; 200 μM oligonucleotide,71.2 pg/mL
same,Levels of IL-10,[8]; 200 μM oligonucleotide,3.8 pg/mL
same,Levels of MCP-1,[8]; 200 μM oligonucleotide,2449.3 pg/mL
same,Levels of TNF-α,[8]; 200 μM oligonucleotide,18.9 pg/mL
